Measured values reported in patent US20060293231A1, “Method for enhancing bone formation” (priority 2004, published 2006).
Where “and” joins values, the source holds several entries; their conditions need not be identical. Equal values may be shown once. Entries after “also recorded” stand apart in the source; their conditions may differ.

Legend:
Type in all cases: cell-based, human
[1] = test system: platelet-rich plasma (PRP); assay: Clotting time of platelet-rich plasma (visual)
Experimental: (§1) PRP composites were prepared by mixing PRP and TRAP with bone substitutes commonly utilized in the clinical setting. Twenty four-well plates (Corning Inc., Corning, N.Y.) were coated with 1% bovine serum albumin (Sigma, St. Louis, Mo.) and incubated for 1.5 hours at 37° C. Sterilized BioOss (25 mg, 0.5-1.0 mm), AlloGro (25 mg), and 45S5 Bioactive Glass (25 mg, […]) were uniformly dispersed within the wells. Fresh PRP (0.5 ml) aliquots were then dispensed into the pre-coated 24-well plates, and 30 μl of 10% calcium chloride solution were added to each well. Experiments were performed in triplicate (n=3) with the addition of bovine thrombin (75 units) or thrombin receptor activating peptide (TRAP, H2N-Ser-Phe-Leu-Leu Arg-Asn-NH2). TRAP was used to clot PRP for all bone substitute groups examined. • Growth Factor Release—Effects of Bone Substitute and Incubation Mode
(§2) PRP (0.5 mL) aliquots were dispensed into 24-well plates precoated with 1% bovine serum albumin (Sigma, St Louis, Mo.). Thirty microliters of 10% CaCl2 solution (American Reagent Laboratories, Shirley, N.Y.) were added to each well. Experiments were performed in triplicate (n=3) with the addition of bovine thrombin (30, 100, 300 units; GenTrac, Middleton, Wis.) or TRAP (10, 50, 100 μmol/L; Bachem Bioscience Inc, King of Prussia, Pa.). At 30 minutes, if still attached, the clots were gently released from the sides of the culture well with a pipette tip. PRP prepared with CaCl2 solution […] the addition of thrombin or TRAP served as the control group.
(§3) Clotting times were monitored by visualization. Clot retraction was determined by measuring the clot diameter at 1, 2, 4, and 24 hours, and the value was normalized against the well diameter. • Preparation of Platelet-Rich Plasma-Bone Substitute Composites with Thrombin Receptor Agonist Peptide-6
(§4) After the optimization of TRAP concentration, experiments were repeated with the addition of 25 or 50 mg of bone substitutes. To minimize nonspecific binding, the culture well (Corning Inc, Corning, N.Y.) was precoated with 1% bovine serum albumin (Sigma) and incubated for 1.5 hours at 37° C. Sterilized BioOss (25 mg, 0.5 to 1.0 mm; Osteohealth, Shirley, N.Y.), AlloGro (25 mg; Ceramed, Lakewood, Colo.), and 45S5 Bioactive Glass (25 mg, 300 μm; Mo-Sci, Rolla, Minn.) were uniformly dispersed within the wells. Fresh PRP (0.5 mL) aliquots were then dispensed into the precoated 24-well plates, and 30 μl of 10% CaCl2 solution (American Reagent Laboratories, Shirley, N.Y.) was added to each well. Experiments were performed in triplicate (n=3) with the addition of TRAP (H2N-Ser-Phe-Leu-Leu-Arg-Asn-NH2) to the wells containing bone substitutes. • Growth Factor Release from Platelet-Rich Plasma Prepared with Thrombin or Thrombin Receptor Agonist Peptide-6

[2] = test system: platelet-rich plasma (PRP); assay: PRP clot retraction (clot diameter normalized against well diameter; released fluid volume)
Experimental: as §2, §3, §4
(§5) The temporal release of growth factors was examined as a function of time and mode of PRP preparation. Specifically, the PRP clotted with thrombin or TRAP was allowed to gel, and all samples were incubated at 37° C. in a humidified environment for up to 14 days. The volume of fluid released from the clot was measured. Growth factor release was assessed at 1, 3, 7, and 14 days. All collected supernatant samples were stored at −70° C. before analysis. • Quantification of Platelet-Derived Growth Factor and Transforming Growth Factor-β

[3] = test system: PDGF-AB; assay: PDGF-AB release from PRP clots and PRP composites (sandwich enzyme immunoassay of supernatant); settings: for effect of media exchange on PDGF release: Group 1 (dynamic mode) versus Group 2 (static mode, less frequent exchange)
Experimental: as §1
(§6) The temporal release of growth factors was examined as a function of bone substitute and mode of sample incubation. Specifically, the PRP composites were allowed to clot, and all samples were incubated at 37° C. and humidified environment for up to 14 days. The media were exchanged for all groups at 1 day after incubation. The volume of fluid released from the clot was measured and equal volume of fresh Dulbecco's Modification of Eagle's Medium (DMEM, Mediatech, Herdon, Va.) without serum was added back to each well. Subsequently, in the dynamic incubation mode (Group 1), the fluid released from the clot was collected and equal volume of fresh DMEM was added back into the well at 3, 7, and 14 days. In the static mode (Group 2), the media was exchanged only at the designated time points (7 and 14 days). All collected supernatant samples were stored at −70° C. prior to analyses. • Quantification of PDGF and TGFβ
Supernatants collected from all time points for both Group 1 and 2 were assayed for PDGF-AB and TGFβ content using diagnostic kits from R & D Systems (Minneapolis, Minn.). Both assays are based on a sandwich enzyme immunoassay technique. The PDGF-AB assay uses a pre-coated microtiter plate with a monoclonal antibody to PDGF-AA. Preparation and dilution of samples and standards were performed as directed by the manufacturer. Both the standards and the samples were incubated for 3 hours at room temperature. The plate was washed with buffer and a conjugated antibody to PDGF-BB was added to the wells and incubated at room temperature for an additional 1 hour. The plate was then washed and substrate added for 20 minutes at room temperature. The reaction was stopped and absorbance was determined at 450 nm using a spectrophotometer (SpectraFluor Plus, Tecan, Maennedorf, Switzerland). A standard curve was generated and the PDGF-AB levels (pg/ml) of each sample were determined. The total amount of growth factor was calculated based on the amount of supernatant obtained after clot retraction.
as §5
Supernatants were assayed for PDGF-AB and TGFβ content using diagnostic kits from R & D Systems (Minneapolis, Minn.). Both assays are based on a sandwich enzyme immunoassay technique. The PDGF-AB assay used a precoated microtiter plate with a monoclonal antibody to PDGF-AA. Preparation and dilution of samples and standards were performed as directed by the manufacturer. Both the standards and the samples were incubated for 3 hours at room temperature. […]

[4] = test system: TGFβ; assay: TGFβ release from PRP clots and PRP composites (enzyme immunoassay of supernatant); settings: for TGFβ release/retention post clotting, comparison between groups: day 1 post clotting, p<0.05
Experimental: as §1, §6
TGFβ was assayed with a similar enzyme immunoassay technique. A dilution series of TGFβ standards was prepared in 100 μl volumes in 96-well microtiter plates coated with TGFβ receptor Type II. The sample supernatants (0.025 ml) obtained from PRP composites were diluted with 0.075 ml of phosphate buffer saline solution. The samples were then activated with 0.1 ml of 1.0 N HCl incubated at room temperature for 10 minutes, neutralized by an addition of 0.1 ml of 1.2 N NaOH/0.5 M HEPES (N-[2-hydroxyethyl] piperazine-N-[2-ethanesulfonic acid]). The supernatant fractions were then incubated for 3 hours at room temperature. The wells were then washed and enzyme-conjugated polyclonal antibody to TGFβ1 was added and allowed to incubate for 1.5 hours at room temperature. The reaction was stopped and absorbance was measured at 450 nm using a spectrophotometer (SpectraFluor Plus, Tecan, Maennedorf, Switzerland). A standard curve was generated and the TGFβ levels (pg/ml) of each sample were determined. The total amount of growth factors was calculated based on the amount of supernatant obtained after clot retraction. • Statistical Analyses
as §5
TGFβ was assayed with a similar enzyme immunoassay technique. A dilution series of TGFβ standards were prepared in 96-well microtiter plates coated with TGFβ receptor Type II. The sample supernatants (0.025 mL) obtained from PRP composites were diluted with 0.075 mL of phosphate-buffered saline solution. […]

H2N-Ser-Phe-Leu-Leu-Arg-Asn-NH2 [TRAP, reference compound]
time for the clot to completely solidify ([1]; Example 1, TRAP at 100 μm): 14.5 min
time for the clot to completely solidify ([1]; Example 2, TRAP at 100 μmol/L): 9.25 min
decrease in the clot diameter ([2]; TRAP 50 μmol/L): 15%
decrease in the clot diameter ([2]; TRAP 100 μmol/L): 15%
PDGF-AB released ([3]; Example 1, at 7 days): 11,624 pg
PDGF-AB released ([3]; Example 1, day 1): 20,642 pg
PDGF-AB released ([3]; Example 2, at 7 days, mean±SD): 2,797.6±612.0 pg
PDGF-AB released ([3]; Example 2, day 1, mean±SD): 20,642±1,170.0 pg
effect of media exchange on PDGF release [3]: no statistically significant effects; also recorded: No significant difference
TGFβ retained compared to the thrombin group ([4]; Example 1, time not stated (day 1 context)): 39.2%
TGFβ retained, more than the thrombin group ([4]; Example 2, at 72 hours): 39.2%
TGFβ release/retention post clotting, comparison between groups [4]: significantly lower levels

thrombin: bovine thrombin (GenTrac), serine protease used as standard PRP clotting agent
time to complete polymerization of PRP ([1]; Example 1, 30 units of thrombin added to 0.5 ml PRP mixture): 6 min
time to clot formation ([1]; Example 1, 100 units thrombin, 0.5 ml PRP): 1.25 min
time to clot formation ([1]; Example 1, 300 units thrombin, 0.5 ml PRP): 1.25 min
time to complete polymerization of PRP ([1]; Example 2, 30 units of thrombin added to 0.5 mL PRP mixture): 6 min
time to clot formation ([1]; Example 2, 100 units thrombin): 3.25 min
clot retraction ([2]; 30 units of thrombin): 34%
shrinkage of the clot (clot retraction) ([2]; 100 units of thrombin, all time points): 43%
volume of supernatant released from the clot ([2]; all time points, comparison between groups): largest release volume
clot retraction ([2]; at 24 hours, TRAP with 25 mg bone substitute, thrombin 100 units): 56%±3% and 56%
PDGF-AB released ([3]; Example 1, at 7 days): 5,068 pg
PDGF-AB released ([3]; Example 1, day 1): 32,526 pg
PDGF-AB released ([3]; Example 2, at 7 days, mean±SD): 1,738.2 ±443.0 pg
PDGF-AB released ([3]; Example 2, day 1, mean±SD): 32,526±6,752.4 pg
effect of media exchange on PDGF release [3]: No significant difference
effect of media exchange on PDGF release ([3]; listed as Thrombin): no statistically significant effects
PDGF-AB release, more than the TRAP group ([3]; day 1): approximately 36%
TGFβ release from the clot after 14 days ([4]; after 14 days): all of the TGFβ present in the original PRP thrombin clots had been released; also recorded: all the TGFβ in thrombin clots was released
TGFβ release/retention post clotting, comparison between groups [4]: highest amount
TGFβ already released from the clot ([4]; within 24 hours, of total TGFβ in original PRP): over 81.4%
